Values belong to the compound of their own block, whether it stands above or below them.
What was measured:
[1] = molecular target: Activin receptor type-2A (Homo sapiens) (UniProt P27037); experiment: Selectivity interaction (LanthaScreen Eu Kinase Binding Assay) EUB0001632a ACVR2A; details: at 10 µM
[2] = system: Proto-oncogene tyrosine-protein kinase receptor Ret (Homo sapiens), P07949 [S891A]; experiment: (§1) Selectivity interaction (Kinase panel (Z-LYTE Assay)) EUB0001632a RET; details: at 10 µM
[3] = system: Proto-oncogene tyrosine-protein kinase receptor Ret (Homo sapiens), P07949 [V804L]; experiment: as §1; details: at 10 µM
[4] = system: Proto-oncogene tyrosine-protein kinase receptor Ret (Homo sapiens), P07949 [Y791F]; experiment: as §1; details: at 10 µM
[5] = molecular target: Proto-oncogene tyrosine-protein kinase receptor Ret (Homo sapiens, UniProt P07949); experiment: as §1; details: at 10 µM
[6] = molecular target: BDNF/NT-3 growth factors receptor (Homo sapiens) (UniProt Q16620); experiment: Selectivity interaction (KinomeScan (DiscoverX)) EUB0000666a NTRK2; details: at 10 µM
[7] = molecular target: Calcium/calmodulin-dependent protein kinase type 1D (Homo sapiens) (UniProt Q8IU85); experiment: Selectivity interaction (SelectScreen profiling (Invitrogen)) EUB0000607a CAMK1D; details: at 2 µM
[8] = molecular target: Fibroblast growth factor receptor 1 (Homo sapiens, UniProt P11362); experiment: Selectivity interaction (Upstate Kinase Profiler service (Millipore)) EUB0000056c FGFR1; details: at 1 µM
[9] = molecular target: Non-receptor tyrosine-protein kinase TYK2 (Homo sapiens, UniProt P29597); experiment: Selectivity interaction (ActivX KiNativ screen (kinase selectivity in THP-1 cell lysates)) EUB0000639a TYK2; format: subcellular; details: lysate, at 5 µM
[10] = molecular target: T1, Tyrosine-protein kinase receptor TYRO3 (Homo sapiens) (UniProt Q06418); experiment: Selectivity interaction (Millipore kinase profiler) EUB0000124b TYRO3; details: at 10 µM
T1 sequence (whole entry): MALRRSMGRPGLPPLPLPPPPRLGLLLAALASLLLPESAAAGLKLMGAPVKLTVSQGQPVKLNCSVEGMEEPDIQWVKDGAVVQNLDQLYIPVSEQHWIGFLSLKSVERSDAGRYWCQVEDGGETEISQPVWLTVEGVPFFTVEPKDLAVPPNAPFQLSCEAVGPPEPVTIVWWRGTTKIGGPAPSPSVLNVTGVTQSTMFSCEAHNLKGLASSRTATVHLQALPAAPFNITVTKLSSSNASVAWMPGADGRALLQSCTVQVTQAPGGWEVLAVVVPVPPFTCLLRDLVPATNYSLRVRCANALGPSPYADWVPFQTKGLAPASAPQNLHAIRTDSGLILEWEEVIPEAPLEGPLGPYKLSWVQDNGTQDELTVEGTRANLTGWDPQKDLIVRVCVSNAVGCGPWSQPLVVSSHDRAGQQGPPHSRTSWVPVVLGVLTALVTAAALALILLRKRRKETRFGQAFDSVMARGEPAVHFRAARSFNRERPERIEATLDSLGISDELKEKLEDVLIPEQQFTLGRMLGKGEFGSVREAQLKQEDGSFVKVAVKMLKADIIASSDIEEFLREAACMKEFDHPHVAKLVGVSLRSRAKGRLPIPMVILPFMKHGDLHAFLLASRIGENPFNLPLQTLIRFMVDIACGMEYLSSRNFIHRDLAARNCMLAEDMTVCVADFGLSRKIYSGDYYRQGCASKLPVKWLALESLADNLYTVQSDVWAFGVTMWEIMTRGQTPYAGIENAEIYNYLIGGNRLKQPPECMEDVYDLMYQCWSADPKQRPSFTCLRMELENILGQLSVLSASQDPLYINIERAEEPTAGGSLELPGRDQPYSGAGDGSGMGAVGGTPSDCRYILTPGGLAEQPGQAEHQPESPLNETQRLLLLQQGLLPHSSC

[11] = molecular target: CDK4/Cyclin D3 (Homo sapiens) (UniProt P11802+P30281); experiment: (§2) Selectivity interaction (KinomeScan (DiscoverX)) EUB0001079a CDK4; format: protein-complex assay; details: at 1 µM
[12] = molecular target: Cyclin-dependent kinase 4/cyclin D1 (Homo sapiens) (UniProt P11802+P24385); experiment: as §2; format: protein-complex assay; details: at 1 µM
[13] = molecular target: Dual specificity protein kinase CLK1 (Homo sapiens, UniProt P49759); experiment: Selectivity interaction (KinomeScan (DiscoverX)) EUB0000092b CLK1; details: at 10 µM
[14] = molecular target: T2, Rhodopsin kinase GRK1 (Homo sapiens) (UniProt Q15835); experiment: Selectivity interaction (KinomeScan (DiscoverX)) EUB0000092b GRK1; details: at 10 µM
T2 sequence (whole entry): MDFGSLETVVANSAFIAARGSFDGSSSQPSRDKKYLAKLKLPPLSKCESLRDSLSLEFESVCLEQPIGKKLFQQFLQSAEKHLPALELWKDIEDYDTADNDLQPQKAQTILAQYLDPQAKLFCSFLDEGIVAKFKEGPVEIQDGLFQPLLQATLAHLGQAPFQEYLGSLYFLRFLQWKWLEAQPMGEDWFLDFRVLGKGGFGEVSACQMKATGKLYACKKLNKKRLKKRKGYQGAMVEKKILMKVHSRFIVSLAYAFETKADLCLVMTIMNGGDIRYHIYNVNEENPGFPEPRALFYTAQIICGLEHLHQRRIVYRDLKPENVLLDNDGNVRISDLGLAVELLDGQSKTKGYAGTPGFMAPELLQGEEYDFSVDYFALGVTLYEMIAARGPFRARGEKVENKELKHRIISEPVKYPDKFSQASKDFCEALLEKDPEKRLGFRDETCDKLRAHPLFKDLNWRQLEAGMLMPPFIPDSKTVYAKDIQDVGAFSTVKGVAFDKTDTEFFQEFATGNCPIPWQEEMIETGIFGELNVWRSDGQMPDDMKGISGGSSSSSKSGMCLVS

[15] = molecular target: High affinity nerve growth factor receptor (Homo sapiens, UniProt P04629); details: at 10 µM
[16] = molecular target: Serine/threonine-protein kinase MARK1 (Homo sapiens) (UniProt Q9P0L2); experiment: Selectivity interaction (KinomeScan (DiscoverX)) EUB0000618a MARK1; details: at 10 µM
Sequence of Serine/threonine-protein kinase MARK1 (Homo sapiens) (Q9P0L2 whole entry, looked up): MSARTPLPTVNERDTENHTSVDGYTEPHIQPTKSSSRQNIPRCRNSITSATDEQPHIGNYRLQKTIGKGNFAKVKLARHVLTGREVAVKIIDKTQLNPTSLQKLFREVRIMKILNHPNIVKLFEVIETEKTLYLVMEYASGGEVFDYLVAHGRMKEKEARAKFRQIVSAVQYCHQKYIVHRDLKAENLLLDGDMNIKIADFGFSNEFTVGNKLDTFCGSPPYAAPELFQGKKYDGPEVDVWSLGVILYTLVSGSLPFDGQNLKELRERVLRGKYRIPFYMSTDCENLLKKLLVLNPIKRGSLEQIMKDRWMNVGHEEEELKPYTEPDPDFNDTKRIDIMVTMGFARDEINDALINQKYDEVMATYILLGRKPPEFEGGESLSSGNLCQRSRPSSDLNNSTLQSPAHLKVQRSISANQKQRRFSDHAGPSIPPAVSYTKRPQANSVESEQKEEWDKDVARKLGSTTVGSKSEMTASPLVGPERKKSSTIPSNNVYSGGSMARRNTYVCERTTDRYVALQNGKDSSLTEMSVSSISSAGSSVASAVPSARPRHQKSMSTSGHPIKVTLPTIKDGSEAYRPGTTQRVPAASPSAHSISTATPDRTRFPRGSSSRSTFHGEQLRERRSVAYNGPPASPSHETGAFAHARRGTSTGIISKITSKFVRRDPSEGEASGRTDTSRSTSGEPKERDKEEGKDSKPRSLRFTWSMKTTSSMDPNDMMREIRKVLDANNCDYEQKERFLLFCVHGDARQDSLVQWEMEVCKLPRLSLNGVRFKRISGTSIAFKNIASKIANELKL

Sequence of Fibroblast growth factor receptor 1 (P11362 22-822 limits assumed): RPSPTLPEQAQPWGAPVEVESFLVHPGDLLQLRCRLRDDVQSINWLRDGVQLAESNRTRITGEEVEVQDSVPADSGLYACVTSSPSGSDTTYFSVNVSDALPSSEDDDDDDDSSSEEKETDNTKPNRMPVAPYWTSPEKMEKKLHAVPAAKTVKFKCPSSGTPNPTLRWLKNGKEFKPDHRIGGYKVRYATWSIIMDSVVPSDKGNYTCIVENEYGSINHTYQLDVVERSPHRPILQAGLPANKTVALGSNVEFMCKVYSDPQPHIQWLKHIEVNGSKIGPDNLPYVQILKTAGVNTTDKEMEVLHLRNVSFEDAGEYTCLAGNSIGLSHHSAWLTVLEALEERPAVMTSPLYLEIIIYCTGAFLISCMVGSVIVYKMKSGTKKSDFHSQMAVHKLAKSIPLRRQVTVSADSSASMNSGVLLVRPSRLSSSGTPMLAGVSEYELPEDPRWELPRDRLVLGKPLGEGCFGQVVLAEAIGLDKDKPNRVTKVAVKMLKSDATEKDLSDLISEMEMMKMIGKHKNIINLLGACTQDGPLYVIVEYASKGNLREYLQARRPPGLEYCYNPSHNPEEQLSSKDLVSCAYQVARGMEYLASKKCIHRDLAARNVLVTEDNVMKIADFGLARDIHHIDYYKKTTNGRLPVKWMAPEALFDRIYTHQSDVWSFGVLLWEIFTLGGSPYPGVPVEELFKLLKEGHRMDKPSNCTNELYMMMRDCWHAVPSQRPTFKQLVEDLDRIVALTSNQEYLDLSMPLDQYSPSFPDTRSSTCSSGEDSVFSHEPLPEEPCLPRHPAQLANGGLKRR
Sequence of Calcium/calmodulin-dependent protein kinase type 1D (Homo sapiens) (Q8IU85 whole entry, looked up): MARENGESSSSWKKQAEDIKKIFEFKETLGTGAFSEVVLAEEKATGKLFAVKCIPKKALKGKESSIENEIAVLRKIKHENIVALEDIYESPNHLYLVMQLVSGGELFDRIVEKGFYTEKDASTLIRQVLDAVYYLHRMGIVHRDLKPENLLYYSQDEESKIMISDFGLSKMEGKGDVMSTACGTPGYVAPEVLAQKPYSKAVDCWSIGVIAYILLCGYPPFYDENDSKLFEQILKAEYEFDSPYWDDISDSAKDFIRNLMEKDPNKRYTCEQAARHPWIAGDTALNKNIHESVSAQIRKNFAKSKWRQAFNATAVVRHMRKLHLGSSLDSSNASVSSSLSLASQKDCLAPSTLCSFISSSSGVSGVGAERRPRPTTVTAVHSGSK
Sequence of Non-receptor tyrosine-protein kinase TYK2 (P29597 whole entry): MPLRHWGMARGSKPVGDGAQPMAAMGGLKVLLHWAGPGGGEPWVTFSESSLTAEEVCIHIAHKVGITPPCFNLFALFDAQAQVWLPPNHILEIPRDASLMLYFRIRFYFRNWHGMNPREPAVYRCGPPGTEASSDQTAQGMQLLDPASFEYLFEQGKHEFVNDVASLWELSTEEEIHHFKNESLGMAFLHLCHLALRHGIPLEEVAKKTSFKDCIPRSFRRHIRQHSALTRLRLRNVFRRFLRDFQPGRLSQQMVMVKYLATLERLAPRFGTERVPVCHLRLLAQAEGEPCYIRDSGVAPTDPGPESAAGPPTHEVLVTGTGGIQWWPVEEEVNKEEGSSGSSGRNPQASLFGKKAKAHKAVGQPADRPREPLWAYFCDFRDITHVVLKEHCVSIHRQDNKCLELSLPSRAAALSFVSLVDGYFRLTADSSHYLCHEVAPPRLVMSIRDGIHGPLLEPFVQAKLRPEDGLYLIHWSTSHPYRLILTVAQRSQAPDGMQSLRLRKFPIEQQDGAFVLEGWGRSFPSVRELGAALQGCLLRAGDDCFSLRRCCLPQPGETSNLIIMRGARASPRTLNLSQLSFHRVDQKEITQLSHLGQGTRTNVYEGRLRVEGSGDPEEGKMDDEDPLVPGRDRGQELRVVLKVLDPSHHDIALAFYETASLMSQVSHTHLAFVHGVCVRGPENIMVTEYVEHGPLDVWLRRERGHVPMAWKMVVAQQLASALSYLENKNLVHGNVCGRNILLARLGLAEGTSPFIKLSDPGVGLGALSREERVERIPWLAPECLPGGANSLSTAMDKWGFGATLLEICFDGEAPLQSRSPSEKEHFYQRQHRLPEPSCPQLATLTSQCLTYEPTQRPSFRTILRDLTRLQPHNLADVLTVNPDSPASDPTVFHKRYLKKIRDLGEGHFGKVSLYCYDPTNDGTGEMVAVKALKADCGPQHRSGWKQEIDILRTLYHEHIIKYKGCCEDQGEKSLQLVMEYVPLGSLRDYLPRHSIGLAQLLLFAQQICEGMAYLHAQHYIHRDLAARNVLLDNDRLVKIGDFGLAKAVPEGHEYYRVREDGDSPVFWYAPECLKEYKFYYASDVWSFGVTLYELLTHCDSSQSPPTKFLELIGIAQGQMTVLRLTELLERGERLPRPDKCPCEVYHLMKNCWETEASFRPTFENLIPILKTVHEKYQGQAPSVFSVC
Sequence of Activin receptor type-2A (Homo sapiens) (P27037 whole entry): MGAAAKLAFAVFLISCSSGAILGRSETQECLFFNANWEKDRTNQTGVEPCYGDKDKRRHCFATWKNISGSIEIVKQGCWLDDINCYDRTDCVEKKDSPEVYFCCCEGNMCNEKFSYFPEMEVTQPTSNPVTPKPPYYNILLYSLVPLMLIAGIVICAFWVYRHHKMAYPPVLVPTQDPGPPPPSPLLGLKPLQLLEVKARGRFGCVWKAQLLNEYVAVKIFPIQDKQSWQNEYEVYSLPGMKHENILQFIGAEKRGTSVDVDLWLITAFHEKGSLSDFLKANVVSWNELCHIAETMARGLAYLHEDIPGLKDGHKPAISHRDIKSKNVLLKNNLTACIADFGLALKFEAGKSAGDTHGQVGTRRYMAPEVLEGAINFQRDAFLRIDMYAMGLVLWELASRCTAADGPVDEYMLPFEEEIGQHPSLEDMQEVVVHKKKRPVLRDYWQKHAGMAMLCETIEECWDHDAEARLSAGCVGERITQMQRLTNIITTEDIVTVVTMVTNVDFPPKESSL
Sequence of Proto-oncogene tyrosine-protein kinase receptor Ret (Homo sapiens), P07949 [V804L] (P07949 whole entry V804L): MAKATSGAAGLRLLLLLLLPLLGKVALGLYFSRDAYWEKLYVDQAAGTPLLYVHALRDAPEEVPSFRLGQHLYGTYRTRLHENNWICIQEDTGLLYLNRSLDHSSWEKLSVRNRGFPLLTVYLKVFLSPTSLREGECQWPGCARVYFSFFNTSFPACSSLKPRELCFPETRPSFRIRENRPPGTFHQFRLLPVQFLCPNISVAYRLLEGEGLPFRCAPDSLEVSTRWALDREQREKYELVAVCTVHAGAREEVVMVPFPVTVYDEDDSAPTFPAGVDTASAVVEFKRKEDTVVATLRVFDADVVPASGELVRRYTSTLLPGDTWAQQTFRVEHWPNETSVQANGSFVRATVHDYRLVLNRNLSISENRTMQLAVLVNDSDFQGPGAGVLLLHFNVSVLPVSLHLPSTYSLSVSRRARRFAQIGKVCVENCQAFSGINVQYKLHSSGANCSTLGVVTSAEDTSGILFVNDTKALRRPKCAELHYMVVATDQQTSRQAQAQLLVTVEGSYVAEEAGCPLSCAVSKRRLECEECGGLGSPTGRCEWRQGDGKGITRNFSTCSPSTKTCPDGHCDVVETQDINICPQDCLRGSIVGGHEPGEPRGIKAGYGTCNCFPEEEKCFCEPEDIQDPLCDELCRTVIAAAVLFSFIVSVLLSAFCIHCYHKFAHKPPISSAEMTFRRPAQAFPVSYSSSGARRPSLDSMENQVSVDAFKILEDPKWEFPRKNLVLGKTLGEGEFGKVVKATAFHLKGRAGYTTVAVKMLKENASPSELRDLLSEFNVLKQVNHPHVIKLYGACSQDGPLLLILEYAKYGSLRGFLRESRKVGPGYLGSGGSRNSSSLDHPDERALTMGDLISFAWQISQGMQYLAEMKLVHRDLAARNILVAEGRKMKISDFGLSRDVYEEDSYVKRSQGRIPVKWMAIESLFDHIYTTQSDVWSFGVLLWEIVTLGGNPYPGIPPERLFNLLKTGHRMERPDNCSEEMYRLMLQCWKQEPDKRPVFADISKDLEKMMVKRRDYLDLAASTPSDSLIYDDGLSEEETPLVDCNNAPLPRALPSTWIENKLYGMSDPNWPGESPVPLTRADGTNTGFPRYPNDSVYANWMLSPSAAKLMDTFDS

- % of inhibition [1]: -39.5%
- % of control [2]: 2.48%
- % of control [3]: 6.91%
- % of control [4]: 6.92%
- % of control [5]: 12%
SMILES: Cn1cc(-n2cnc3c(NCc4nc5cc(Cl)c(Cl)cc5[nH]4)nc(N4CCOCC4)nc32)cn1

SMILES: O=C(NOC[C@H](O)CO)c1ccc(F)c(F)c1Nc1ccc(I)cc1F
- % of control [6]: 100%

SMILES: CNC(=O)Nc1ccc(-c2nc(N3CC4CCC(C3)O4)c3cnn(C4CCC5(CC4)OCCO5)c3n2)cc1
- % of inhibition [7]: 0%

- % of inhibition [8]: 3%
SMILES: Cc1ccc(-c2ccc3c(ccc4sc5c(c43)NC[C@@H](C)NC5=O)n2)cn1

- % of inhibition [9]: 37.4%
SMILES: CC[C@@H]1[C@H](F)C(=O)N[C@@H]1COc1nccc2cc(C(N)=O)c(OC)cc12 [ZIMLOVISERTIB]

- % of control [10]: 112%
SMILES: CC(=O)Nc1cccc(-n2c(=O)n(C3CC3)c(=O)c3c(Nc4ccc(I)cc4F)n(C)c(=O)c(C)c32)c1

SMILES: Nc1cnc(N2CCc3cc(S(=O)(=O)Nc4c(F)cc(Cl)cc4F)cc(N4CCCC4=O)c32)nc1 [TP-020n]
- % of control [11]: 86%
- % of control [12]: 97%

SMILES: CCC(=O)N1CCN(c2ccc(-n3c(=O)ccc4cnc5ccc(-c6cnc7ccccc7c6)cc5c43)cc2C(F)(F)F)CC1
- % of control [13]: 49%
- % of control [14]: 99%

SMILES: Cc1cc([C@@H](C)Nc2ccccc2C(=O)O)c2nc(N3CCOCC3)cc(=O)n2c1 [AZD-6482]
- % of control [15]: 88%

SMILES: O[C@H]1CC[C@H](Nc2ncc3nc(Nc4c(F)cc(F)cc4F)n([C@H]4CCOC4)c3n2)CC1
- % of control [16]: 100%

Source: ChEMBL document CHEMBL5465560, “Selectivity Literature for EUbOPEN Chemogenomic Library” (2024)
